Results on one molecule are retold here after patent publication US20120321729A1, “NUTRITIONAL FORMULA FOR MANAGING CHRONIC OBSTRUCTIVE PULMONARY DISEASE (COPD) AND LUNG HEALTH” (priority 2011, published 2012).

Test [1] relates to Nrf2 (nuclear factor erythroid 2-related factor 2). As to the kind of experiment: Alteration of regulatory elements of oxidative stress and inflammation (Nrf2). The settings on record: "We and others have observed".
Test [2] has as its system lipopolysaccharide-induced injury (lungs). The following applies: mice; cited from earlier work.
For test [3], the system named is primary rat tracheal epithelial cells. The settings on record: a chemical found in tobacco smoke, previously disclosed; cited from earlier work.
A further test relates to heme oxygenase 1. The following applies: Zhang H S, Wang S Q Biochem Pharmacol. 2007; cited from earlier work.
Test [4] has as its system lipopolysaccharide-induced injury (lungs). The following applies: rats; cited from earlier work.
In test [5] the test system is Nrf2 (nuclear factor erythroid 2-related factor 2). The settings on record: "It has been shown" (related art); cited from earlier work.
Test [6] concerns inducible nitric oxide synthase. The following applies: Zhang H S, Wang S Q Biochem Pharmacol. 2007; cited from earlier work.

Where two headings read alike, the source gives them in different places.

For `Cc1coc2c1C(=O)C(=O)c1c-2ccc2c1CCCC2(C)C` [Tanshinone IIA], the “effect on regulatory elements involved in oxidative stress and inflammation such as Nrf2” value in test [1] and in test [5] was “alters regulatory elements” in each case. Further, the “protection of lungs from lipopolysaccharide-induced injury” value in test [2] and in test [4] was “protects lungs” throughout. In test [3], the “protection of primary rat tracheal epithelial cells from benzopyrene” value was “protects”. In the test with heme oxygenase 1, the “induction of heme oxygenase 1” value was “inducer”. Moreover, the “suppression of the induction of inducible nitric oxide synthase” value in test [6] is reported as “suppressor of the induction”.
